Measured values from ChEMBL document CHEMBL1201862, “PubChem BioAssay data set” (2004).
Calls of active or inactive are those of the source.

Key:
[1] = NIH-3T3 fibroblast cytotoxicity, dose response, cytotoxicity control, cell-based, fluorescence, Alamar Blue, secondary assay (AID 2327); format: functional;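 also: NIH-3T3 mouse fibroblasts cultured with fluconazole at 8 µg/mL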
[2] = tested on: HEK293; experiment: Fluorescence-based counterscreen for potentiators or agonists of NPY-Y2: cell-based high-throughput dose response assay to identify inhibitors of cyclic nucleotide gated ion channel (CNGC) activity. In this assay, the parental HEK293 cell line transfected with a cyclic-nucleotide gated ion channel (CNGC)-based cAMP sensor is used to measure inhibition of isoproterenol-induced CNGC activity by test compound.; format: functional; conditions: Homo sapiens;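 also: stimulus is 1 µM isoproterenol at EC100 plus PDE inhibitor Ro 20-1724 at 25 µM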
[3] = target: T1, Neuropeptide Y receptor type 2 (Homo sapiens, UniProt P49146); experiment: Fluorescence-based cell-based high-throughput dose response assay for agonists of NPY-Y2. [Related pubchem assays: 1703 (Screening assay (CNGC inhibitors).), 1359 (Screening assay (NPY-Y2 potentiators or agonists).), 1304 (Screening assay (NPY-Y1 potentiators or agonists).), 1710 (Screening assay (NPY-Y2 agonists).), 1791 (Summary AID.)]; format: functional
T1 sequence (P49146 whole entry): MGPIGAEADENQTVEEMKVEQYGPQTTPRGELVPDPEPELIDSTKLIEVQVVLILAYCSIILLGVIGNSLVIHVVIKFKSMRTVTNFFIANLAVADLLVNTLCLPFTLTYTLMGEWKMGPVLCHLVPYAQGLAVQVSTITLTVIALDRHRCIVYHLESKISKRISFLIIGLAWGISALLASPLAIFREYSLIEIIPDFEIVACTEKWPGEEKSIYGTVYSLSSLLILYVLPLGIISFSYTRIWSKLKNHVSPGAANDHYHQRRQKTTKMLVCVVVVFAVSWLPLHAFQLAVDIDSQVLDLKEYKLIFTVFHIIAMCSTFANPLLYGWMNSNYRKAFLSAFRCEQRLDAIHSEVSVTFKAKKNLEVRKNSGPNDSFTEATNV

[4] = fluconazole-exposed Candida albicans growth modulators – fluorescence, retest, confirmation (AID 2467); format: functional, cell-based
[5] = target: T2, Neuropeptide Y receptor type 1 (Homo sapiens, UniProt P25929); experiment: Fluorescence-based counterscreen for agonists of NPY-Y2: cell-based high-throughput dose response assay for agonists of NPY-Y1.; format: functional
T2 sequence (P25929 whole entry): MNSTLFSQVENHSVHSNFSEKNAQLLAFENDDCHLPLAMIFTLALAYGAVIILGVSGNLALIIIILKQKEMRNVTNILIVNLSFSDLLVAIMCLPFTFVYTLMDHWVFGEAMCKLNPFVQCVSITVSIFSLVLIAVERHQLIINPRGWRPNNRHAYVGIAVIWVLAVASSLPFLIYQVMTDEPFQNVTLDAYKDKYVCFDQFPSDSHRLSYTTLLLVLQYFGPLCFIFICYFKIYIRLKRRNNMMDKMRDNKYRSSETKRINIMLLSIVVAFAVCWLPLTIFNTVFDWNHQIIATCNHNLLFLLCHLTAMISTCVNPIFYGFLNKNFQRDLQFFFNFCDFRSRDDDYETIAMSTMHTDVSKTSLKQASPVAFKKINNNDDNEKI

[6] = tested on: Vero; experiment: viability of Vero cells under compound – cytotoxicity control for flavivirus capping enzyme inhibitors (AID 588742); format: functional; conditions: Chlorocebus sabaeus
[7] = target: Genome polyprotein (dengue virus type 2, UniProt P29990); experiment: flavivirus cap methylation enzyme inhibition – biochemical, confirmation dose response, primary screen (AID 588689); format: functional
Chain of Genome polyprotein (P29990 2492-3391 limits assumed): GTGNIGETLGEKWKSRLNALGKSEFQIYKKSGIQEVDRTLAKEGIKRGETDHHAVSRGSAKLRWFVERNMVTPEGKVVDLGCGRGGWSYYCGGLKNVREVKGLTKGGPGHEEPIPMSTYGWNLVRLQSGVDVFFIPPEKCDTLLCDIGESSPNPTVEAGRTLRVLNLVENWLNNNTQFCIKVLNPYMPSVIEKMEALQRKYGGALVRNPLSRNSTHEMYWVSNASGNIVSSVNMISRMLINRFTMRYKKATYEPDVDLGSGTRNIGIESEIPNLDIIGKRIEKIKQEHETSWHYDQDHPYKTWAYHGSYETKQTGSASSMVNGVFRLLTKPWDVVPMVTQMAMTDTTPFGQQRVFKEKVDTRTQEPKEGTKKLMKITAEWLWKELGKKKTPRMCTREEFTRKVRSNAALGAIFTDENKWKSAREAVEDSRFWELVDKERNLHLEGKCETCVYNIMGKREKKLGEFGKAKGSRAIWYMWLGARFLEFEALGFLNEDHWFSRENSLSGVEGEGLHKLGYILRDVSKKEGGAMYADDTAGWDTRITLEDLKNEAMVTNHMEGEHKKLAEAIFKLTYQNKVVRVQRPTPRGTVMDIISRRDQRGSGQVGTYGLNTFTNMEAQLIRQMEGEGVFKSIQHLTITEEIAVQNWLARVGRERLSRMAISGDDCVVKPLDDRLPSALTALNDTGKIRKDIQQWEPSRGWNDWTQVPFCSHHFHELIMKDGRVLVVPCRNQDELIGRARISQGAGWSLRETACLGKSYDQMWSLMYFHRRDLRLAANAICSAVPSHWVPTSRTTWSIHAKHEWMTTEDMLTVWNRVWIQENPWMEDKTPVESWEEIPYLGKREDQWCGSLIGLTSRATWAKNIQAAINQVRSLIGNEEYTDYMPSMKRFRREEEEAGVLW

[8] = target: T3, Polyadenylate-binding protein 1 (Homo sapiens, UniProt P11940); experiment: MLLE binding blockers, Cy5 peptide tracer – biochemical, fluorescence polarization, Cy5-PAM2 peptide, secondary, miRNA deadenylation inhibitor project, dose response (AID 602260); format: functional; conditions: read-out: IC50_Mean
T3 sequence (P11940 whole entry, the tested form may be a part): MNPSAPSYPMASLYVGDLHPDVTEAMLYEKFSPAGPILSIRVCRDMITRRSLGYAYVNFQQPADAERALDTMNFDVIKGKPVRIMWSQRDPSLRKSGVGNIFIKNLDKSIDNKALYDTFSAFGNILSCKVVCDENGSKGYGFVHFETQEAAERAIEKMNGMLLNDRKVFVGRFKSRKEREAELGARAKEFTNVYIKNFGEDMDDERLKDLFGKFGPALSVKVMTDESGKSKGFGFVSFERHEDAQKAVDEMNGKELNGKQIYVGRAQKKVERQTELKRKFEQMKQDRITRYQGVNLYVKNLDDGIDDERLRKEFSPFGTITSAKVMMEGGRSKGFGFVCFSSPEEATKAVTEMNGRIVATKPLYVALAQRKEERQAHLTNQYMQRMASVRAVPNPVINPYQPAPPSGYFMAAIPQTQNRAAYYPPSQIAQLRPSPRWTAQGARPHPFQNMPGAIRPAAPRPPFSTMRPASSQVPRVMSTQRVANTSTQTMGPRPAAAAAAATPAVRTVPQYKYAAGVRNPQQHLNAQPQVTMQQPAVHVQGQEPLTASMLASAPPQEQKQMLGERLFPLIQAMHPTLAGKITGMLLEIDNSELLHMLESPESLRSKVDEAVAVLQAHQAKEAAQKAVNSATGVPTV

[9] = target: T3, Polyadenylate-binding protein 1; experiment: MLLE domain peptide-binding blockers, IC50 – biochemical, fluorescence polarization, FITC-PAM2 peptide, dose response (AID 602259); format: functional; conditions: read-out: IC50_Mean
[10] = viability of uninfected HEp-2 cells – cell-based, HTS, cytotoxicity control for RSV inhibitor project, dose response (AID 2410); format: functional; conditions: human respiratory syncytial virus
[11] = cells
[12] = tested on: Vero; experiment: cells; format: functional, cell-based; conditions: Chlorocebus sabaeus
[13] = blockers of bursicon-stimulated LGR2 cAMP reporter – cell-based, HEK293, CRE-luciferase reporter, cherry pick, set 2, dose response (AID 743343); format: functional;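 also: transfected cells were stimulated with diluted bursicon conditioned medium after compound addition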
[14] = blockade of melanocortin 4 receptor signaling – cell-based, plate reader, cherry pick, counter-screen for LGR2 antagonist project, dose response (AID 743444); format: functional;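 also: transfected HEK 293 cells stimulated with alpha-MSH peptide; potency of inhibitors of the alpha-MSH evoked signal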
[15] = luciferase reporter signal suppression in cells – H4 neuroglioma cells, luminescence, dose response (AID 1990); format: functional, cell-based
[16] = tested on: BJ; experiment: BJ-TERT fibroblast viability loss – cell-based, RAS-independent, luminescence, dose response (AID 1933); format: functional; conditions: Homo sapiens
[17] = Luminescence Cell-Based Dose Response HTS to Identify Inhibitors of 5'UTR Stem-Loop Driven Prion Protein mRNA Translation in H4 Neuroglioblastoma Cells. [Related pubchem assays: 1827 (Project Summary), 1813 (Primary HTS)]; format: functional
[18] = tested on: BJ; experiment: cells; format: functional, cell-based; conditions: Homo sapiens
[19] = tested on: BJ; experiment: BJ-TERT-LT-ST fibroblast viability loss – cell-based, RAS-independent, luminescence, dose response (AID 1935); format: functional; conditions: Homo sapiens;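 also: BJ fibroblasts immortalized with TERT plus LT and ST oncogenes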
[20] = DRD fibroblast viability loss – cell-based, non-viral oncogenic, luminescence, dose response (AID 1934); format: functional; conditions: Homo sapiens
[21] = HEK-293T viability loss after treatment – luminescence, T-cell screen hits, cytotoxicity control for TCR NF-kB inhibitor project, dose response (AID 489026); format: functional, cell-based;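 also: cells exposed to compound about 14 hours before the viability readout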
[22] = A Cell Based Secondary Assay To Explore Cytotoxicity of Compounds that Sensitize Mycobacterium Tuberculosis to Beta-Lactam Antibiotics.; format: functional
[23] = target: Luciferin 4-monooxygenase (Photinus pyralis, UniProt P08659); experiment: Counter Screen for Luciferase-based Assay Positives. [Related pubchem assays: 620, 618, 411 ]
Chain of Luciferin 4-monooxygenase (P08659 whole entry): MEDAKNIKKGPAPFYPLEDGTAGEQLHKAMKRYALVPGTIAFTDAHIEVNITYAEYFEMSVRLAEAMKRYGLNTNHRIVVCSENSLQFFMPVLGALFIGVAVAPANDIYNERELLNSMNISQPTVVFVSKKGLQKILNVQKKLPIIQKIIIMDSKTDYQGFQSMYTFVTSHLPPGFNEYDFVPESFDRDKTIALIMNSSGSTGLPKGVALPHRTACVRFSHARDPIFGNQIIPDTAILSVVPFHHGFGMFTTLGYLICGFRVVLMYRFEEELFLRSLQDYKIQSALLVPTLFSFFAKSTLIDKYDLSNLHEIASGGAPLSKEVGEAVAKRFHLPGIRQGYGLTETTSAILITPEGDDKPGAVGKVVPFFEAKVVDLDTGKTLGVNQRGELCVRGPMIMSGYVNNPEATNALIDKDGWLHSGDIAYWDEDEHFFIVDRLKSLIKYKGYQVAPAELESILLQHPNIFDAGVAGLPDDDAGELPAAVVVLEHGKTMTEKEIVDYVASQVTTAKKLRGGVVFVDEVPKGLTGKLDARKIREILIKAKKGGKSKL

[24] = cells; format: functional, cell-based
[25] = HPDE-C7 pancreatic duct cell viability loss – fluorescence, HTS (AID 430); format: functional, cell-based; conditions: Homo sapiens
[26] = viability loss of HPDE-C7K cells – cell-based, fluorescence, HTS, primary screen (AID 431); format: functional; conditions: Homo sapiens
[27] = cells; format: functional, cell-based; remark: listed apart in the source
[28] = viability of PTEN-deleted HCT116 cells – cell-based, HCT116 PTEN knockout, dose response (AID 1047); format: functional;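 also: HCT116 colon tumor cells with PTEN knocked out; cells exposed to compound for 60 hours before readout; potency for loss of cell viability measured by luminescence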
[29] = tested on: HT-1080; experiment: HT1080 cell viability loss – fluorescence readout (AID 620); format: functional, cell-based; conditions: Homo sapiens
[30] = viability of HCT116 lacking mutant beta-catenin – cell-based, human colon tumor, dose response (AID 1045); format: functional;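 also: HCT116 colon tumor cells with beta catenin knocked out; cells exposed to compound for 60 hours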
[31] = target: T4, Replicative DNA helicase DnaB (Mycobacterium tuberculosis, UniProt P9WMR3); experiment: DnaB intein splicing inhibitors, dose response, biochemical, cell-free fluorescence (AID 449749); format: functional
T4 sequence (P9WMR3 whole entry): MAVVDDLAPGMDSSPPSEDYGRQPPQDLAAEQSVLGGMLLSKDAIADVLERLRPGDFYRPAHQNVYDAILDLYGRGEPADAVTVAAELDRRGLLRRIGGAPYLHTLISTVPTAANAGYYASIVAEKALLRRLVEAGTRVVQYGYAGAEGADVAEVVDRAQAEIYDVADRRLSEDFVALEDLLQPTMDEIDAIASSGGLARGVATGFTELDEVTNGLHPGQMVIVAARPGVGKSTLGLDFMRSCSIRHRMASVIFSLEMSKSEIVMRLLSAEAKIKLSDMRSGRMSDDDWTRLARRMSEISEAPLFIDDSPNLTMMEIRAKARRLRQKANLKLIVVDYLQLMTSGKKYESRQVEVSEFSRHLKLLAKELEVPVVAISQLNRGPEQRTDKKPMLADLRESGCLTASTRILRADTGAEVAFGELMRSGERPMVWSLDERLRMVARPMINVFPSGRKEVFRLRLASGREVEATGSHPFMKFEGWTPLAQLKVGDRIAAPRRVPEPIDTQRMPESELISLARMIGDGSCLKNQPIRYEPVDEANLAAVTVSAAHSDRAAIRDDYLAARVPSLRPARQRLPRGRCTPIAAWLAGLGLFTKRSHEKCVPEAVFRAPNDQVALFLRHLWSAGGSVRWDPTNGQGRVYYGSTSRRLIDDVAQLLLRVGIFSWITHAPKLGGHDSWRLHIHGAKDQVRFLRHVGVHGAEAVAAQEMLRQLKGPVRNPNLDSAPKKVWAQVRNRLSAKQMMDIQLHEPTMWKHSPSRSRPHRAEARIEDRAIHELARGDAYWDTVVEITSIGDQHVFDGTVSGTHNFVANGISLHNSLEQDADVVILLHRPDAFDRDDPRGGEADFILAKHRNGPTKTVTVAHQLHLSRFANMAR

[32] = target: T5, Protein RecA (Mycobacterium tuberculosis, UniProt P9WHJ3); experiment: Fluorescence Cell-Free Homogeneous Dose Retest to Identify Inhibitors of RecA-Intein Splicing Activity. [Related pubchem assays (depositor defined):AID2097, AID2223, AID489010, AID492950]; format: functional
T5 sequence (P9WHJ3 whole entry): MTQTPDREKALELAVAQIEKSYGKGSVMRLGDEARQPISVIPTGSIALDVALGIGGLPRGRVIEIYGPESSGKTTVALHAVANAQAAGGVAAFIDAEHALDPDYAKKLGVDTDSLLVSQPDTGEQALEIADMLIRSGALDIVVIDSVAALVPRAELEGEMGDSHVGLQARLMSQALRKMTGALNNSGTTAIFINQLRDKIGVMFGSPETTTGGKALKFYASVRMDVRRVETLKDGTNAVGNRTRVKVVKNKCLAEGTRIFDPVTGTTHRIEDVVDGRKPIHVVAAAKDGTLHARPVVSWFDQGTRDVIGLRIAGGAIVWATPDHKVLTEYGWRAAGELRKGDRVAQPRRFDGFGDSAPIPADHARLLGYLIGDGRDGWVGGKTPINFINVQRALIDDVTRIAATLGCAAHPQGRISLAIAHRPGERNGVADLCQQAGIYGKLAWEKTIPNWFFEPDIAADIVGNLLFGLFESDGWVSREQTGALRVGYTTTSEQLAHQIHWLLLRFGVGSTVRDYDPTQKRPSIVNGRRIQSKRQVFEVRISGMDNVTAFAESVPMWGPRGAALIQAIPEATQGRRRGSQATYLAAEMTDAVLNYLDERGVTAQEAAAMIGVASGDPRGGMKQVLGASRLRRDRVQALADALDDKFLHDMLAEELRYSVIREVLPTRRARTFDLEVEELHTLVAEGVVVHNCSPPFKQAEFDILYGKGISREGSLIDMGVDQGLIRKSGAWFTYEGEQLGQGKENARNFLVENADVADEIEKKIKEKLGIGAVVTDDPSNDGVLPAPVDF

[33] = reduction of Shn3 3'UTR-driven luciferase in osteoblasts – cell-based, Clone20 osteoblasts, firefly luciferase, cherry-picked, dose response (AID 624132); format: functional;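 also: firefly luciferase luminescence from reporter carrying the Shn3 3'UTR in osteoblasts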
[34] = loss of viability in HepG2 cells – cell-based, CellTiter-Glo, cherry-picked, cytotoxicity control for Shn3 inhibitor project, dose response (AID 624134); format: functional
[35] = non-specific 3'UTR reporter inhibition in Clone20-Shn3RL – cell-based, Renilla luciferase, cherry-picked, counter-screen for Shn3 inhibitor project, dose response (AID 624133); format: functional

COc1cc(C(=S)N2CCN(c3ccccc3Cl)CC2)cc(O)c1O
EC50 [1]: > 150 µM (inactive) | EC50 [2]: > 35.4 µM (not active) | EC50 [3]: > 35.4 µM (not active) | EC50 [4]: > 38 µM (not active) | EC50 [5]: > 35.4 µM (not active) | CC50 [6]: > 40 µM (active) | IC50 [7]: > 100 µM (active) | IC50 [8]: > 66 µM (inactive) | IC50 [9]: > 66 µM (inactive)

CCC(=O)NC(=S)Nc1ccc(NC(=O)COc2ccc(Cl)c(C)c2)cc1
CC50 [10]: > 50 µM (active) | IC50 [11]: 39 µM (active)

Cc1[nH]c(C)c(S(=O)(=O)N2CCN(c3cccc(C(F)(F)F)c3)CC2)c1C(=O)N1CCCCC1
CC50 [10]: 17.6 µM (active) | IC50 [12]: 22.4 µM (active) | IC50 [11]: 23.3 µM (active)

Cc1ccc(C(=O)n2nc(-n3cccc3)c3c(C)cc(C)nc32)cc1
EC50 [2]: > 35.4 µM (not active) | EC50 [3]: > 35.4 µM (not active) | EC50 [5]: > 35.4 µM (not active) | AC50 [13]: 13.9 µM (active) | AC50 [14]: 1.22 µM (active)

CN(C)c1ccc(-[n+]2c(-c3ccccc3)cc(-c3ccccc3)cc2-c2ccccc2)cc1.[O-][Cl+3]([O-])([O-])[O-]
EC50 [1]: 4.87 µM (active) | EC50 [15]: 8.27 µM (active) | EC50 [2]: > 35.4 µM (not active) | EC50 [16]: 2.81 µM (active) | EC50 [3]: > 35.4 µM (not active) | EC50 [17]: > 120 µM (not active) | EC50 [18]: 3.14 µM (active) | EC50 [4]: 0.132 µM (active) | EC50 [5]: 24.4 µM (not active) | EC50 [19]: 3 µM (inconclusive) | EC50 [20]: 3.14 µM (active) | IC50 [21]: 55.4 µM (inactive)

O=C(c1ccccc1)N1CCC(CC2CC(c3cccc(Br)c3)=NO2)(C(=O)NCC2CCCCC2)CC1 (stereo unspecified)
CC50 [22]: > 40 µM (active)

COc1ccccc1-c1cc(C(F)(F)F)nc(S(=O)(=O)CCCC(=O)N2CCOCC2)n1
EC50 [23]: 4.85 µM (active) | EC50 [24]: > 350 µM (not active) | EC50 [25]: 9.95 µM (active) | EC50 [26]: 6.34 µM (active) | EC50 [27]: > 350 µM (not active) | EC50 [28]: 19.2 µM (active) | EC50 [29]: 30.8 µM (active) | EC50 [30]: 34.4 µM (active) | AC50 [31]: 8.15 µM (active) | EC50 [32]: 4.26 µM (active) | AC50 [33]: 3.02 µM (active) | AC50 [34]: 23.2 µM (active) | AC50 [35]: 10.2 µM (active)

COc1ccc(S(=O)(=O)NC(C)(C)C)cc1-c1nnc2c3ccccc3c(C)nn12
IC50 [11]: 8.97 µM (active)
